Experimental findings from US20250241926A1, “HETEROCYCLIC COMPOUNDS FOR USE IN THE TREATMENT OF CANCER” (ARTIOS PHARMA LIMITED, priority 2021, published 2025) are described below.

Like-named read-outs stand apart in the source and are kept apart here.

The assay has as its target T1, Human Polθ polymerase domain (aa1820-2590) (Homo sapiens, UniProt O75417).
T1 construct: Human Polθ polymerase domain (aa1820-2590) was expressed in E. Coli; made in house; host or cells: E. coli
T1 sequence (O75417 1820-2590): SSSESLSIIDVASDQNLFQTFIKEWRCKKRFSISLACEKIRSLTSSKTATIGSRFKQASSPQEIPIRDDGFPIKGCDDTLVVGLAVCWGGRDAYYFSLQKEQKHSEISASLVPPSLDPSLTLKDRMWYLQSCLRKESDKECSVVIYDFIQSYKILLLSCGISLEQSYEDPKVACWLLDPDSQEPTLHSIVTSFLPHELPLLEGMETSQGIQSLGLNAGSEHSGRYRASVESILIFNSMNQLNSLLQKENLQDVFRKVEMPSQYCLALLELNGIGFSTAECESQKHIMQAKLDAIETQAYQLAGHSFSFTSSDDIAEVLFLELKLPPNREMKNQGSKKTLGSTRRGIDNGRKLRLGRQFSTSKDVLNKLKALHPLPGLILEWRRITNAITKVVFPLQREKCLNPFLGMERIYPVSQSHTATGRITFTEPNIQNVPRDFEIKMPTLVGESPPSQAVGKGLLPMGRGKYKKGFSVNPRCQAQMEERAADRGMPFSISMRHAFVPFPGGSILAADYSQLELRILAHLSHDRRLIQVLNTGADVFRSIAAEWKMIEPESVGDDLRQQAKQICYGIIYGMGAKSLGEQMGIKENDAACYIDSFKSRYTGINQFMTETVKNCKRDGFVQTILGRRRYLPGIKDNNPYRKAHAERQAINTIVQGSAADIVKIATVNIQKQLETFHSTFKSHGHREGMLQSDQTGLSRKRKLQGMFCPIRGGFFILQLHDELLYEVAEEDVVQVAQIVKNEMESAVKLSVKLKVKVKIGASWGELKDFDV
As to the kind of experiment: Polθ Polymerase Domain Kinact/Kl Assay (PicoGreen). It is filed as biochemical. Particulars: covalent inhibitors, kobs vs [I] fit, 0.8 nM Polθ, 100 nM DNA substrate. The gist of the method: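 E. coli-expressed enzyme (0.8 nM final) was run with 100 nM annealed DNA substrate and dNTPs in Tris pH 7.5 buffer (1% DMSO), with EDTA stops across a time course up to 60 min. Synthesised DNA was read by PicoGreen fluorescence. kobs per inhibitor concentration was fitted from the time courses, and Kinact and KI came from the kobs-vs-[I] plot.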

On to `C=CC(=O)N1CC2(CN(CCN3CC[C@H](Nc4nc(C)cc(C(F)(F)F)c4C#N)C(=O)N(C)c4cccc(C)c43)CCN2)C1` [Example 69, (S)-2-((6-(2-(2-Acryloyl-2,5,8-triazaspiro[3.5]nonan-8-yl)ethyl)-1,7-dimethyl-2-oxo-1,2,3,4,5,6-hexahydrobenzo[b][1,4]diazocin-3-yl)amino)-6-methyl-4-(trifluoromethyl)nicotinonitrile], for which the kinact/KI (read-out: Kinact/KI) worked out at 4.1e+06 M⁻¹ s⁻¹.

For the compound `C=CC(=O)N1CC2(CN(CCN3CC[C@H](Nc4nc(C)cc(C(F)(F)F)c4C#N)C(=O)N(CC)c4cccc(F)c43)CCN2)C1` [Example 70, (S)-2-((6-(2-(2-Acryloyl-2,5,8-triazaspiro[3.5]nonan-8-yl)ethyl)-1-ethyl-7-fluoro-2-oxo-1,2,3,4,5,6-hexahydrobenzo[b][1,4]diazocin-3-yl)amino)-6-methyl-4-(trifluoromethyl)nicotinonitrile], the kinact/KI (read-out: Kinact/KI) came to 1.3e+06 M⁻¹ s⁻¹. On the same count and under the same terms, then `C=CC(=O)N1CC2(CN(CCN3CC[C@H](Nc4nc(C)cc(C(F)(F)F)c4C#N)C(=O)N(C)c4cccc(F)c43)CCN2C(C)=O)C1` [Example 71, (S)-2-((6-(2-(5-Acetyl-2-acryloyl-2,5,8-triazaspiro[3.5]nonan-8-yl)ethyl)-7-fluoro-1-methyl-2-oxo-1,2,3,4,5,6-hexahydrobenzo[b][1,4]diazocin-3-yl)amino)-6-methyl-4-(trifluoromethyl)nicotinonitrile], with 1.4e+06 M⁻¹ s⁻¹. For “(S)-2-((6-(2-(3-(4-Acrylo- ylpiperazin-1-yl)azetidin- 1-yl)ethyl)-7-fluoro-1- methyl-2-oxo-1,2,3,4,5,6- hexahydrobenzo[b][1,4] diazocin-3-yl)amino)-6- methyl-4-(trifluorometh- yl)nicotinonitrile [Example 10]”, the kinact/KI turned out to be 190000 M⁻¹ s⁻¹. The same measure, in the same setting: the same measure for “(S)-2-((6-(2-(4-(1-Acrylo- yl-3-hydroxyazetidin-3- yl)piperidin-1-yl)ethyl)-7- fluoro-1-methyl-2-oxo- 1,2,3,4,5,6-hexahydro- benzo[b][1,4]diazocin-3- yl)amino)-6-methyl-4- (trifluoromethyl)nicotino- nitrile [Example 12]”: 440000 M⁻¹ s⁻¹. “(S)-2-((6-(2-(4-(1-Acrylo- ylazetidin-3-yl)piperazin- 1-yl)ethyl)-7-fluoro-1- methyl-2-oxo-1,2,3,4,5,6- hexahydrobenzo[b][1,4] diazocin-3-yl)amino)-6- methyl-4-(trifluorometh- yl)nicotinonitrile [Example 11]”: the kinact/KI amounted to 500000 M⁻¹ s⁻¹. On the same count and under the same terms, then “(S,E)-2-((6-(2-(2- (4-(Dimethyl- amino)but-2-eno- yl)-5-methyl-7- oxo-2,5,8-triaza- spiro[3.5]nonan-8- yl)ethyl)-7-fluoro- 1-methyl-2-oxo- 1,2,3,4,5,6-hexa- hydrobenzo[b] [1,4]diazocin-3- yl)amino)-6-meth- yl-4-(trifluoro- methyl)nicotino- nitrile [Example 46]”, with 560000 M⁻¹ s⁻¹; and “(S,E)-2-((6-(2-((2- (4-(Dimethyl- amino)but-2-eno- yl)-2-azaspiro[3.3] heptan-6-yl)-oxy)- ethyl)-7-fluoro-1- methyl-2-oxo- 1,2,3,4,5,6-hexa- hydrobenzo[b] [1,4]diazocin-3- yl)amino)-6-meth- yl-4-(trifluoro- methyl)nicotino- nitrile [Example 45]”, with 5.7e+06 M⁻¹ s⁻¹.
